Results taken from patent US20250230193A1, “CYCLIC COMPOUND HAVING SELECTIVE KRAS INHIBITORY EFFECT ON HRAS AND NRAS” (CHUGAI SEIYAKU KABUSHIKI KAISHA, priority 2022, published 2025).

Experiments:
[1] = biological target: GDP-bound NRAS wild-type protein (Homo sapiens, UniProt P01111); assay: Binding to NRAS by surface plasmon resonance (SPR), Single Cycle Kinetics; settings: SPR; KD ratio class
[2] = biological target: GDP-bound HRAS wild-type protein (Homo sapiens, UniProt P01112); assay: Binding to HRAS by surface plasmon resonance (SPR), Single Cycle Kinetics; settings: SPR; KD ratio class
[3] = test system: human lung cancer strain NCI-H441; assay: cells; settings: NCI-H441, 96 h, read-out: NCI-H441 IC50 (nM)

Chain of GDP-bound NRAS wild-type protein (P01111 whole entry): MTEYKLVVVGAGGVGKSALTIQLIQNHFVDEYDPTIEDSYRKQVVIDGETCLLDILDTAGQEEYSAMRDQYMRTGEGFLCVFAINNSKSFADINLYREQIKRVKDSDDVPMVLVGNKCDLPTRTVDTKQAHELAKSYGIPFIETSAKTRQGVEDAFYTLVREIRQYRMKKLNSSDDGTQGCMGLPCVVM
Chain of GDP-bound HRAS wild-type protein (P01112 whole entry): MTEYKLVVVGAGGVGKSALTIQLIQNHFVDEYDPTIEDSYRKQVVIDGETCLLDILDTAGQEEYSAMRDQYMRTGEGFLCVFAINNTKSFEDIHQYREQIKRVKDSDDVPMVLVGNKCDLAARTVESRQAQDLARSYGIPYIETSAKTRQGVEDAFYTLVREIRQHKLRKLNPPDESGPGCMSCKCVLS

CC[C@H](C)[C@@H]1NC(=O)[C@H](CC)N(C)C(=O)C[C@@H](C(=O)N2CCOCC2)N(C)C(=O)[C@H](C2CCCC2)N(C)C(=O)C2(CCCC2)NC(=O)[C@@H]2CCCN2C(=O)[C@H](CCc2cc(F)c(C(F)(F)F)c(F)c2)NC(=O)CN(C)C(=O)[C@H](Cc2ccc(C(F)(F)F)cc2)N2C[C@H](C)CC[C@@H](C2=O)N(C)C(=O)CN(C)C1=O [PP1383]
NRAS/KRAS (ratio of KD value for GDP-bound NRAS wild-type protein to KD value for KRAS) [1]: B (a compound having 3 or more and less than 10 is denoted as B)
HRAS/KRAS (ratio of KD value for GDP-bound HRAS wild-type protein to KD value for KRAS) [2]: B (a compound having 3 or more and less than 10 is denoted as B)
IC50 [3]: 11.2 nM

CCO[C@@H]1C[C@H]2C(=O)NC3(CCC3)C(=O)N(C)[C@@H](C(CC)CC)C(=O)N(C)[C@H](C(=O)N(C)C)CC(=O)N(C)[C@@H](C)C(=O)N[C@@H]([C@@H](C)CC)C(=O)N(C)CC(=O)N(C)[C@H]3C/C=C\CCN(C3=O)[C@@H](Cc3ccc(C(F)(F)F)cc3)C(=O)N(C)CC(=O)N[C@@H](CCc3ccc(Cl)c(Cl)c3)C(=O)N2C1 [PP1214]
NRAS/KRAS (ratio of KD value for GDP-bound NRAS wild-type protein to KD value for KRAS) [1]: AA (a compound having 20 or more is denoted as AA)
HRAS/KRAS (ratio of KD value for GDP-bound HRAS wild-type protein to KD value for KRAS) [2]: A (a compound having 10 or more and less than 20 is denoted as A)
IC50 [3]: 93.4 nM

CCC[C@H]1C(=O)N[C@@H]([C@@H](C)CC)C(=O)N(C)CC(=O)N(C)[C@H]2C/C=C\CCN(C2=O)[C@@H](Cc2ccc(C(F)(F)F)cc2)C(=O)N(C)CC(=O)N[C@@H](CCc2ccc(Cl)c(Cl)c2)C(=O)N2C[C@H](OCC)C[C@H]2C(=O)NC2(CCC2)C(=O)N(C)[C@@H](C2CCCC2)C(=O)N(C)[C@H](C(=O)N(C)C)CC(=O)N1C [PP1250]
NRAS/KRAS (ratio of KD value for GDP-bound NRAS wild-type protein to KD value for KRAS) [1]: AA (a compound having 20 or more is denoted as AA)
HRAS/KRAS (ratio of KD value for GDP-bound HRAS wild-type protein to KD value for KRAS) [2]: A (a compound having 10 or more and less than 20 is denoted as A)
IC50 [3]: 18.7 nM

CC[C@H](C)[C@@H]1NC(=O)[C@H](CC2CC2)N(C)C(=O)C[C@@H](C(=O)N2CCCC2)N(C)C(=O)[C@H](C2CCCC2)N(C)C(=O)C2(CCCC2)NC(=O)[C@@H]2C[C@@H](C(F)(F)F)CN2C(=O)[C@H](CCc2cc(F)c(C(F)(F)F)c(F)c2)NC(=O)CN(C)C(=O)[C@H](Cc2ccc(C(F)(F)F)cc2)N2CC/C=C\C[C@@H](C2=O)N(C)C(=O)CN(C)C1=O [PP1506]
NRAS/KRAS (ratio of KD value for GDP-bound NRAS wild-type protein to KD value for KRAS) [1]: AA (a compound having 20 or more is denoted as AA)
HRAS/KRAS (ratio of KD value for GDP-bound HRAS wild-type protein to KD value for KRAS) [2]: A (a compound having 10 or more and less than 20 is denoted as A)
IC50 [3]: 73.4 nM

CC[C@H](C)[C@@H]1NC(=O)[C@H](CC2CCC2)N(C)C(=O)C[C@@H](C(=O)N(C)C)N(C)C(=O)[C@H](C2CCCC2)N(C)C(=O)C2(CCCC2)NC(=O)[C@@H]2CCCN2C(=O)[C@H](CCc2cc(F)c(C(F)(F)F)c(F)c2)NC(=O)CN(C)C(=O)[C@H](Cc2ccc(C(F)(F)F)cc2)N2C[C@H](C)CC[C@@H](C2=O)N(C)C(=O)CN(C)C1=O [PP1386]
NRAS/KRAS (ratio of KD value for GDP-bound NRAS wild-type protein to KD value for KRAS) [1]: B (a compound having 3 or more and less than 10 is denoted as B)
HRAS/KRAS (ratio of KD value for GDP-bound HRAS wild-type protein to KD value for KRAS) [2]: B (a compound having 3 or more and less than 10 is denoted as B)
IC50 [3]: 4.2 nM

CCO[C@@H]1C[C@H]2C(=O)NC3(CCC3)C(=O)N(C)[C@@H](C(CC)CC)C(=O)N(C)[C@H](C)CC(=O)N(C)[C@@H](CC3CC3)C(=O)N[C@@H]([C@@H](C)CC)C(=O)N(C)CC(=O)N(C)[C@H]3C/C=C\CCN(C3=O)[C@@H](Cc3ccc(F)cc3)C(=O)N(C)CC(=O)N[C@@H](CCc3cc(F)c(C(F)(F)F)c(F)c3)C(=O)N2C1 [PP1521]
NRAS/KRAS (ratio of KD value for GDP-bound NRAS wild-type protein to KD value for KRAS) [1]: A (a compound having 10 or more and less than 20 is denoted as A)
HRAS/KRAS (ratio of KD value for GDP-bound HRAS wild-type protein to KD value for KRAS) [2]: B (a compound having 3 or more and less than 10 is denoted as B)
IC50 [3]: 173 nM

CCCCCC[C@H]1C(=O)N[C@@H]([C@@H](C)CC)C(=O)N(C)CC(=O)N(C)[C@H]2C/C=C\CCN(C2=O)[C@@H](Cc2ccc(C(F)(F)F)cc2)C(=O)N(C)CC(=O)N[C@@H](CCc2ccc3sccc3c2)C(=O)N2C[C@H](OCC)C[C@H]2C(=O)NC2(CCC2)C(=O)N(C)[C@@H](C(CC)CC)C(=O)N(C)[C@H](C(=O)N(C)C)CC(=O)N1C [PP1226]
NRAS/KRAS (ratio of KD value for GDP-bound NRAS wild-type protein to KD value for KRAS) [1]: AA (a compound having 20 or more is denoted as AA)
HRAS/KRAS (ratio of KD value for GDP-bound HRAS wild-type protein to KD value for KRAS) [2]: A (a compound having 10 or more and less than 20 is denoted as A)
IC50 [3]: 106 nM

CCO[C@@H]1C[C@H]2C(=O)NC3(CCC3)C(=O)N(C)[C@@H](C3CCCC3)C(=O)N(C)[C@H](C(=O)N(C)C)CC(=O)N(C)[C@@H](CC3CC3)C(=O)N[C@@H]([C@@H](C)CC)C(=O)N(C)CC(=O)N(C)[C@H]3C/C=C\CCN(C3=O)[C@@H](Cc3ccc(F)cc3C)C(=O)N(C)CC(=O)N[C@@H](CCc3ccc(Cl)c(Cl)c3)C(=O)N2C1 [PP1476]
NRAS/KRAS (ratio of KD value for GDP-bound NRAS wild-type protein to KD value for KRAS) [1]: A (a compound having 10 or more and less than 20 is denoted as A)
HRAS/KRAS (ratio of KD value for GDP-bound HRAS wild-type protein to KD value for KRAS) [2]: B (a compound having 3 or more and less than 10 is denoted as B)
IC50 [3]: 216 nM

CCO[C@@H]1C[C@H]2C(=O)NC3(CCC3)C(=O)N(C)[C@@H](C3CCCC3)C(=O)N(C)[C@H](C(=O)N(C)C)CC(=O)N(C)[C@@H](CC3CCCC3)C(=O)N[C@@H]([C@@H](C)CC)C(=O)N(C)CC(=O)N(C)[C@H]3C/C=C\CCN(C3=O)[C@@H](Cc3ccc(F)cc3C)C(=O)N(C)CC(=O)N[C@@H](CCc3cc(F)c(C(F)(F)F)c(F)c3)C(=O)N2C1 [PP1530]
NRAS/KRAS (ratio of KD value for GDP-bound NRAS wild-type protein to KD value for KRAS) [1]: A (a compound having 10 or more and less than 20 is denoted as A)
HRAS/KRAS (ratio of KD value for GDP-bound HRAS wild-type protein to KD value for KRAS) [2]: B (a compound having 3 or more and less than 10 is denoted as B)
IC50 [3]: 17.2 nM

CCO[C@@H]1C[C@H]2C(=O)NC3(CCCC3)C(=O)N(C)[C@@H](C3CCCC3)C(=O)N(C)[C@H](C(=O)N3CCOCC3)CC(=O)N(C)[C@@H](CC)C(=O)N[C@@H]([C@@H](C)CC)C(=O)N(C)CC(=O)N(C)[C@H]3C[C@H](C)C(C)CN(C3=O)[C@@H](Cc3ccc(C(F)(F)F)cc3)C(=O)N(C)CC(=O)N[C@@H](CCc3cc(F)c(C(F)(F)F)c(F)c3)C(=O)N2C1 (stereo partly drawn) [PP1348]
NRAS/KRAS (ratio of KD value for GDP-bound NRAS wild-type protein to KD value for KRAS) [1]: B (a compound having 3 or more and less than 10 is denoted as B)
HRAS/KRAS (ratio of KD value for GDP-bound HRAS wild-type protein to KD value for KRAS) [2]: B (a compound having 3 or more and less than 10 is denoted as B)
IC50 [3]: 8.7 nM

CCCOC[C@H]1C(=O)N[C@@H]([C@@H](C)CC)C(=O)N(C)CC(=O)N(C)[C@H]2C/C=C\CCN(C2=O)[C@@H](Cc2ccc(C(F)(F)F)cc2)C(=O)N(C)CC(=O)N[C@@H](CCc2cc(F)c(C(F)(F)F)c(F)c2)C(=O)N2C[C@H](OCC)C[C@H]2C(=O)NC2(CCC2)C(=O)N(C)[C@@H](C2CCCC2)C(=O)N(C)[C@H](C(=O)N(C)CC)CC(=O)N1C [PP1569]
NRAS/KRAS (ratio of KD value for GDP-bound NRAS wild-type protein to KD value for KRAS) [1]: A (a compound having 10 or more and less than 20 is denoted as A)
HRAS/KRAS (ratio of KD value for GDP-bound HRAS wild-type protein to KD value for KRAS) [2]: B (a compound having 3 or more and less than 10 is denoted as B)
IC50 [3]: 2.8 nM

CC[C@H](C)[C@@H]1NC(=O)[C@H](CC2CCC2)N(C)C(=O)C[C@@H](C(=O)N(C)C)N(C)C(=O)[C@H](C2CCCC2)N(C)C(=O)C2(CCCC2)NC(=O)[C@@H]2CCCN2C(=O)[C@H](CCc2ccc(C(F)(F)F)c(Cl)c2)NC(=O)CN(C)C(=O)[C@H](Cc2ccc(C(F)(F)F)cc2)N2C[C@H](C)CC[C@@H](C2=O)N(C)C(=O)CN(C)C1=O [PP1342]
NRAS/KRAS (ratio of KD value for GDP-bound NRAS wild-type protein to KD value for KRAS) [1]: B (a compound having 3 or more and less than 10 is denoted as B)
HRAS/KRAS (ratio of KD value for GDP-bound HRAS wild-type protein to KD value for KRAS) [2]: B (a compound having 3 or more and less than 10 is denoted as B)
IC50 [3]: 5 nM

CCO[C@@H]1C[C@H]2C(=O)NC3(CCC3)C(=O)N(C)[C@@H](C3CCCC3)C(=O)N(C)[C@H](C(=O)N(C)C)CC(=O)N(C)[C@@H](CC3CCCC3)C(=O)N[C@@H]([C@@H](C)CC)C(=O)N(C)CC(=O)N(C)[C@H]3C/C=C\CCN(C3=O)[C@@H](Cc3ccc(F)cc3)C(=O)N(C)CC(=O)N[C@@H](CCc3ccc4sccc4c3)C(=O)N2C1 [PP1390]
NRAS/KRAS (ratio of KD value for GDP-bound NRAS wild-type protein to KD value for KRAS) [1]: A (a compound having 10 or more and less than 20 is denoted as A)
HRAS/KRAS (ratio of KD value for GDP-bound HRAS wild-type protein to KD value for KRAS) [2]: A (a compound having 10 or more and less than 20 is denoted as A)
IC50 [3]: 305 nM

CCCOC[C@H]1C(=O)N[C@@H]([C@@H](C)CC)C(=O)N(C)CC(=O)N(C)[C@H]2C/C=C\CCN(C2=O)[C@@H](Cc2ccc(C(F)(F)F)cc2)C(=O)N(C)CC(=O)N[C@@H](CCc2cc(F)c(C(F)(F)F)c(F)c2)C(=O)N2C[C@H](OCC)C[C@H]2C(=O)NC2(CC(C)(C)C2)C(=O)N(C)[C@@H](C2CCCC2)C(=O)N(C)[C@H](C(=O)N(CC)CC)CC(=O)N1C [PP1575]
NRAS/KRAS (ratio of KD value for GDP-bound NRAS wild-type protein to KD value for KRAS) [1]: B (a compound having 3 or more and less than 10 is denoted as B)
HRAS/KRAS (ratio of KD value for GDP-bound HRAS wild-type protein to KD value for KRAS) [2]: B (a compound having 3 or more and less than 10 is denoted as B)
IC50 [3]: 11.1 nM
